The source made the active and inactive calls. Where only a bound is given, the exact number is not on record here.

Among the data in ChEMBL document CHEMBL1201862, “PubChem BioAssay data set” (2004) are AC50, IC50 and EC50 values, retold here.

Experiment [1] is described as follows: intracellular Trypanosoma cruzi inhibitors in host cells – cell-based, plate reader, cherry-pick samples, set 3, dose response (AID 651818).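 Also: compounds incubated with infected cells for about four days.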 The experiment is classed as functional.
In experiment [2] the target is T1, Polyadenylate-binding protein 1 (Homo sapiens, UniProt P11940). In words: MLLE binding blockers, Cy5 peptide tracer – biochemical, fluorescence polarization, Cy5-PAM2 peptide, secondary, miRNA deadenylation inhibitor project, dose response (AID 602260). It is filed as functional. The following applies: read-out: IC50_Mean. Background: In fluorescence polarisation assays a small probe gives low polarisation when free and higher when bound to something large.
T1 sequence (P11940 whole entry): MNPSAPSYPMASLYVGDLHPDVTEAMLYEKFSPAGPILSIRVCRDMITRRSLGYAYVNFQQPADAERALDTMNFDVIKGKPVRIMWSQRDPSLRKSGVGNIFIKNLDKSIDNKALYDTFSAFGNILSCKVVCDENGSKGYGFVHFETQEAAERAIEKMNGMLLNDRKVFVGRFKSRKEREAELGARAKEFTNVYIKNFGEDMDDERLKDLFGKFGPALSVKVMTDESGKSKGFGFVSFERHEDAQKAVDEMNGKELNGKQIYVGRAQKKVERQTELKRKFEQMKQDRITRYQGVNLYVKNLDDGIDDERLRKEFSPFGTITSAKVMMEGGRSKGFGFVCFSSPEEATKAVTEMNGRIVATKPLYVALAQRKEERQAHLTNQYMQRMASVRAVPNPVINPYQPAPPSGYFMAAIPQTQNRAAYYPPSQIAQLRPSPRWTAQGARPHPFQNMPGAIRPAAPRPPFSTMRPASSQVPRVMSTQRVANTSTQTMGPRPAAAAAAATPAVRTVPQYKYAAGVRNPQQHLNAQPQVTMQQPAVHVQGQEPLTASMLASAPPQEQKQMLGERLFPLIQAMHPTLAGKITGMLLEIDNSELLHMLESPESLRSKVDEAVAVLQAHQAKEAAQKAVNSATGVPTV

In experiment [3] the target is T1, Polyadenylate-binding protein 1. In words: MLLE domain peptide-binding blockers, IC50 – biochemical, fluorescence polarization, FITC-PAM2 peptide, dose response (AID 602259). To be noted: read-out: IC50_Mean. The experiment is classed as functional.
Experiment [4] in a line: viability of PTEN-deleted HCT116 cells – cell-based, HCT116 PTEN knockout, dose response (AID 1047).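 Also: HCT116 colon tumor cells with PTEN knocked out; cells exposed to compound for 60 hours before readout; potency for loss of cell viability measured by luminescence.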 It is filed as functional.
A short description of experiment [5]: viability of HCT116 lacking mutant beta-catenin – cell-based, human colon tumor, dose response (AID 1045).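 Also: HCT116 colon tumor cells with beta catenin knocked out; cells exposed to compound for 60 hours.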 The experiment is classed as functional.
A short description of experiment [6]: Luminescence Cell-Based Dose Confirmation HTS to Identify Inhibitors of Platelet Dense Granule Release. [Related pubchem assays: 1663 (Primary HTS), 1678 (Summary of Project)]. The experiment is classed as functional.
For experiment [7], the target named is Luciferin 4-monooxygenase (Photinus pyralis, UniProt P08659). In words: inhibition of purified Photinus pyralis luciferase – biochemical, luminescence, dose response (AID 1891).
Sequence of Luciferin 4-monooxygenase (P08659 whole entry, the tested form may be a part): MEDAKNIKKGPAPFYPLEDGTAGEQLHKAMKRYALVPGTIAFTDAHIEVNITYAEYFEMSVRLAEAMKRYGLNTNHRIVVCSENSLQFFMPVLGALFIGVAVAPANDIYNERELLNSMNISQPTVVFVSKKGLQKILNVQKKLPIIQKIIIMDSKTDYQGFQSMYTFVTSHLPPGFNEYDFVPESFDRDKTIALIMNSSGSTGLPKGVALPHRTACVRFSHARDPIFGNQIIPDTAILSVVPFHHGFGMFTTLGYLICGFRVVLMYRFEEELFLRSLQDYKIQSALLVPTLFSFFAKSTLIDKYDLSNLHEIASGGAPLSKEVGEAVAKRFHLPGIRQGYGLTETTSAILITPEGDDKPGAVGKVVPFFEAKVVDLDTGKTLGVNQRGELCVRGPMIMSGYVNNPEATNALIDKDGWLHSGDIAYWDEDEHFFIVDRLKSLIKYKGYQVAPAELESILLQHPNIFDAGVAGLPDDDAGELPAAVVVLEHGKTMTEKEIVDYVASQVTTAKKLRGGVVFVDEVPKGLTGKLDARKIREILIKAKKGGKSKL
Experiment [8] deals with T2, Carboxy-terminal domain RNA polymerase II polypeptide A small phosphatase 1 (Homo sapiens, UniProt Q9GZU7).
T2 sequence (Q9GZU7 whole entry): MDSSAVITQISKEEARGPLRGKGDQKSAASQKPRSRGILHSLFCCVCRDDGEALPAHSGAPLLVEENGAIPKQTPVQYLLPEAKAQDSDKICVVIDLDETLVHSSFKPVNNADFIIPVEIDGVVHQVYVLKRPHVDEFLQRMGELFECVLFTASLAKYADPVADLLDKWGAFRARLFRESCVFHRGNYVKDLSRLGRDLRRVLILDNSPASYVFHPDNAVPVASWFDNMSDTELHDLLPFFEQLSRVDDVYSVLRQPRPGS
In words: CTDSP1 inhibitors, concentration-response, biochemical, absorbance readout, ultra-high-throughput screen actives (AID 540297). It is filed as functional.

In experiment [9] the target is T3, Zinc finger protein mex-5 (Caenorhabditis elegans, UniProt Q9XUB2).
T3 sequence (Q9XUB2 whole entry): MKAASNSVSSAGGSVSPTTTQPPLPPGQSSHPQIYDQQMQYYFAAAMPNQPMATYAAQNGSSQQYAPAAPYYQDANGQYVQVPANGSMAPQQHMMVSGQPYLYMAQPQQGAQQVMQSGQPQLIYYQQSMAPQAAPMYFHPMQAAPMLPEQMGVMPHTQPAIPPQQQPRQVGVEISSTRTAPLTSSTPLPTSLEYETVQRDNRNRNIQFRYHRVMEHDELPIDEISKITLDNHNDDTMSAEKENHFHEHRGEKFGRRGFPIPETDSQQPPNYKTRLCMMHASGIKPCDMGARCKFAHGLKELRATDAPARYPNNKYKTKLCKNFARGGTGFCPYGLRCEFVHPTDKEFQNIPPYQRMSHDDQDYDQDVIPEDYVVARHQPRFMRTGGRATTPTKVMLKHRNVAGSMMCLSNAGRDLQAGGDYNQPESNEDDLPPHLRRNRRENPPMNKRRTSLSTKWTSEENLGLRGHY
In words: potency of MEX-5 RNA-binding blockers – biochemical, C. elegans, fluorescence polarization, dose response (AID 1960).

For experiment [10], the target named is Large T antigen (Simian virus 40, UniProt P03070). The experiment is classed as functional, Betapolyomavirus macacae.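 Also: Confirmatory-stage PubChem screen for compounds that inhibit SV40 T antigen.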
Sequence of Large T antigen (P03070 whole entry): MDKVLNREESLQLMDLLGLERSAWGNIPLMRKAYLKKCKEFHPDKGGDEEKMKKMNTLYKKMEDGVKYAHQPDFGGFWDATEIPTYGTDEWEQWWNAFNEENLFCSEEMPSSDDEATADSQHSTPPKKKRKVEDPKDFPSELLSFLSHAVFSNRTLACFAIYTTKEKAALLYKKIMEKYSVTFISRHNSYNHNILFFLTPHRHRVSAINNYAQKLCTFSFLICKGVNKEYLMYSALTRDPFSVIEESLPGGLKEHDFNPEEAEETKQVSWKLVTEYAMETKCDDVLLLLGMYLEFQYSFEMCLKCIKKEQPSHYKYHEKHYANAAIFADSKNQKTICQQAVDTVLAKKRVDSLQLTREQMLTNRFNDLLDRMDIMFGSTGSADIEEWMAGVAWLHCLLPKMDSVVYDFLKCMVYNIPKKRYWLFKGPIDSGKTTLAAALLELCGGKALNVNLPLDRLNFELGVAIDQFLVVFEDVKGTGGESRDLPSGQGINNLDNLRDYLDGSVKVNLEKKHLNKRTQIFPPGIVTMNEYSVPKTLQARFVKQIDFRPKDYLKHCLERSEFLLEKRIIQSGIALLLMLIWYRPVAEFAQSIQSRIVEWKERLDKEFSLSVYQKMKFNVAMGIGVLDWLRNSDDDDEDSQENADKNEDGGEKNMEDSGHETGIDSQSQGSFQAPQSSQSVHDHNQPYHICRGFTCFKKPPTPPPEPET
Experiment [11] has as its target T4, RNA-binding protein pos-1 (Caenorhabditis elegans, UniProt G5EF15).
T4 sequence (G5EF15 whole entry): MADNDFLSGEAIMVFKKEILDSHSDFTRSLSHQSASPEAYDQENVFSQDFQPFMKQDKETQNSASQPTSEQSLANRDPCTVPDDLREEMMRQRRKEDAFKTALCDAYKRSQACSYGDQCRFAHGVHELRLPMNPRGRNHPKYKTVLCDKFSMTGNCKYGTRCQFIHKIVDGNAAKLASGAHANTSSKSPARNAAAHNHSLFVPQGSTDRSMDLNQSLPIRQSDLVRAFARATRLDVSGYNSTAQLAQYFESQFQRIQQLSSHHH
In words: disruptors of C. elegans POS-1 RNA interaction – biochemical, fluorescence polarization, dose response (AID 1964).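 Also: purified POS-1 fused to maltose binding protein made in E. coli; potency of compounds blocking POS-1 binding to fluorescent RNA.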

Experiment [12] can be described thus: NIH-3T3 fibroblast cytotoxicity, dose response, cytotoxicity control, cell-based, fluorescence, Alamar Blue, secondary assay (AID 2327).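 Also: NIH-3T3 mouse fibroblasts cultured with fluconazole at 8 µg/mL.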 It is filed as functional. (Resazurin is reduced to fluorescent resorufin, in cell work by metabolically active cells.)
Experiment [13] in a line: fluconazole-exposed Candida albicans growth modulators – fluorescence, retest, confirmation (AID 2467). The experiment is classed as functional, cell-based.
Experiment [14] addresses Paired box protein Pax-8 (Homo sapiens, UniProt Q06710). In words: PAX8 transcriptional activity inhibition in RMG-I – RMG-I cells, luciferase, cherry-pick, dose response (AID 687027).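 Also: luciferase reporter driven by Pax8 target thyroperoxidase promoter measured by SteadyGlo luminescence.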 The experiment is classed as functional, cell-based.

Sequence of Paired box protein Pax-8 (Q06710 whole entry): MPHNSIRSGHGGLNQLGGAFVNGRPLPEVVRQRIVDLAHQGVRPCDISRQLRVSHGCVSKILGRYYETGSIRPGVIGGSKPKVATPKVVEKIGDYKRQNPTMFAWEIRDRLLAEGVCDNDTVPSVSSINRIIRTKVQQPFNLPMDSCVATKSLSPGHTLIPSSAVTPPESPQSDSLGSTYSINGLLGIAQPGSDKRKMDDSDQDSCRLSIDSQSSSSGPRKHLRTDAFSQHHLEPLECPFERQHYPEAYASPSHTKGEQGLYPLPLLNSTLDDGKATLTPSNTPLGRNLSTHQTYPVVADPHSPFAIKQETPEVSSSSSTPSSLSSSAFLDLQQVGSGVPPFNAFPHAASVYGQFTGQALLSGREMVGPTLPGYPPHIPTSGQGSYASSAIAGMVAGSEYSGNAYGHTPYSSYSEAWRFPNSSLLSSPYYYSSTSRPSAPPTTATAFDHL

What is called AC50 is the concentration at which the activity in the assay is half-maximal. With `COc1ccc(S(=O)(=O)Nc2ccc3c(c2)C(=O)N([C@H](C)CO)C[C@H](C)[C@H](CN(C)Cc2ccc(C(F)(F)F)cc2)OCCCC[C@@H](C)O3)cc1`, the AC50 in experiment [1] is 3.2 µM (active).

For the molecule `C[C@@H]1CCCCO[C@H](CN(C)Cc2ccc(C(F)(F)F)cc2)[C@@H](C)CN([C@H](C)CO)C(=O)c2cc(NC(=O)Nc3ccc(C(F)(F)F)cc3)ccc2O1`, the half-maximal activity concentration (AC50) in experiment [1] was 3.15 µM (active).

Regarding `C[C@H]1CN([C@@H](C)CO)C(=O)c2cccc(NC(=O)CCCCCC(=O)Nc3ccccc3N)c2O[C@@H]1CN(C)CC1CCCCC1`, in experiment [1], the AC50 was 1.95 µM (active).

Regarding `Cc1ccc(SC2CC(=O)N(c3ccc4c(c3)OCCO4)C2=O)cc1` (stereo unspecified), the IC50 in experiment [2] and in experiment [3] was > 66 µM (inactive) in each case.

By EC50 is commonly meant the concentration needed to bring the measured effect to its halfway point. On to `CC(=O)Oc1cc2c(C(=O)NCCCN3CCOCC3)c(C)oc2c2ccccc12`, for which the EC50 is 3.79 µM (active) in experiment [4] and 4.45 µM (active) in experiment [5].

Consider `Cc1ccc(NC(=O)CC2SC(=O)N(c3ccccc3)C2=O)cc1` (stereo unspecified), for which the IC50 in experiment [2] and in experiment [3] was > 66 µM (inactive) throughout. In addition, the EC50 is 109 µM (active) in experiment [6] and > 112 µM (not active) in experiment [7].

For `O=C(Cc1nnc(NC(=O)c2ccccc2)s1)N/N=C/c1ccc(O)cc1`, the IC50 in experiment [8] was 8.5 µM (active).

With `C[C@@H]1CN([C@@H](C)CO)C(=O)c2cccc(NC(=O)c3ccncc3)c2O[C@@H]1CN(C)Cc1ccc(Cl)c(Cl)c1`, the AC50 in experiment [1] was 1.31 µM (active).

As for `CCOc1nc(-c2ccc(OC)cc2)ccc1-c1noc(-c2cc(OC)c(OC)c(OC)c2)n1`, the EC50 in [4] is 21.1 µM (active); in [5], 25.5 µM (active).

`C[n+]1cnc(-c2ccccc2)cc1-c1ccccc1`: the IC50 in experiment [8] is 3.35 µM (active).

In the case of `C[C@@H]1CN([C@H](C)CO)C(=O)Cc2cc(NC(=O)NC3CCCCC3)ccc2O[C@H]1CN(C)Cc1ccc(C(=O)Nc2ccccc2N)cc1`, in [1], the AC50 was 5.26 µM (active).

In the case of `O=C(CSc1oc(-c2ccc(F)cc2)nc1S(=O)(=O)c1ccc(F)cc1)NCC1CCCO1` (stereo unspecified), the concentration for a half-maximal effect (EC50) in experiment [4] was 10.2 µM (active); in experiment [5] it was 13.6 µM (active).

As for `Cc1cc2cc(CNC(=O)c3cccs3)ccc2n1C`, the IC50 in experiment [2] and in experiment [3] was > 66 µM (inactive) in each case.

For the molecule `COc1cccc(C(=O)Oc2ccccc2/C=C\C(=O)c2cc3ccccc3o2)c1`, the half-maximal effective concentration (EC50) was 7.8 µM (active) in [4] and 6.66 µM (active) in experiment [5].

In the case of `C=CCNC(=O)COC(=O)c1c2c(nc3ccccc13)CCC2`, the IC50 in experiment [8] was 7.39 µM (active).

As for `O=[N+]([O-])c1ccc(-c2nc(=S)c3c(o2)CCCC3)cc1`, the IC50 in experiment [2] and in [3] was > 66 µM (inactive) throughout.

Consider `C[C@@H]1CN([C@@H](C)CO)C(=O)c2cccc(NC(=O)Nc3ccc(C(F)(F)F)cc3)c2O[C@@H]1CN(C)S(=O)(=O)c1ccc(Cl)cc1`, for which the half-maximal activity concentration (AC50) in [1] is 2.79 µM (active).

On to `C[C@H](CO)N1C[C@H](C)[C@H](CN(C)Cc2ccc(C(=O)Nc3ccccc3N)cc2)Oc2ccc(NS(=O)(=O)c3ccc(F)cc3)cc2CC1=O`, for which, in [1], the AC50 was 2.64 µM (active).

Turning to `O=C(COC(=O)/C=C/c1ccco1)Nc1ncc(Cl)cc1Cl`, the IC50 in experiment [8] is 17 µM (active).

In the case of `COc1ccc(N2C(=O)/C(=C/c3ccc(C)o3)C(=O)NC2=S)c(OC)c1`, the 50% effective concentration (EC50) in experiment [9] is 41.3 µM (active); in [11] it was > 300 µM (not active). In experiment [10], the IC50 is 34.3 µM (active).

For `Oc1[nH]c(S)nc2nc(S)nc1-2`, the concentration giving a half-maximal response (EC50) in experiment [9] was 8.3 µM (active); in experiment [11] it was 32 µM (active). Besides, the IC50 in experiment [10] is 27.2 µM (active).

With `Oc1[nH]c2c(Cl)cc(Cl)cc2c1N=NC(S)=NCC1CCCO1` (stereo unspecified), the EC50 is 1.67 µM (active) in experiment [4], 1.22 µM (active) in [5], 19.8 µM (inconclusive) in experiment [12] and 3.03 µM (active) in [13].

`C[C@H](CO)N1C[C@H](C)[C@@H](CN(C)Cc2ccc(Oc3ccccc3)cc2)Oc2ccc(N(C)C)cc2C1=O`: the half-maximal activity concentration (AC50) in [1] was 2.27 µM (active).

In the case of `Cc1ccc(S(=O)(=O)N(C)C[C@H]2Oc3ccc(NC(=O)Nc4cccc5ccccc45)cc3CC(=O)N([C@@H](C)CO)C[C@H]2C)cc1`, the concentration at half-maximal activity (AC50) in experiment [1] is 4.81 µM (active).

For the molecule `COc1ccc(NC(=O)Nc2ccc3c(c2)CC(=O)N([C@H](C)CO)C[C@@H](C)[C@@H](CN(C)Cc2ccc(Oc4ccccc4)cc2)O3)cc1`, the AC50 in [1] is 2.09 µM (active); in experiment [14], 23.5 µM (active).

For the molecule `Cc1cccc(C(=O)OCC(=O)c2ccc(CC(=O)N3CCOCC3)s2)c1C`, the IC50 in experiment [8] is 6.46 µM (active).

With `CC(=O)C(Sc1nccc(-c2cccs2)n1)C(C)=O`, the IC50 in experiment [2] and in experiment [3] was > 66 µM (inactive) in each case.
